The values below come from patent US10562908B2, “Ortho substituted phenylpyrazolo- and phenylpyrrolo-pyridazine derivatives having multimodal activity against pain” (priority 2016, dated 2020).

Read-outs that look alike come from different tables or passages of the source. Where only a bound is given, the exact number is not on record here.

The target in test [1] is T1, human μ-opioid receptor (Homo sapiens, UniProt P35372).
T1 construct: expressed in transfected cells; host or cells: CHO-K1
Briefly: Human μ-opioid receptor radioligand assay ([3H]-DAMGO). Type of test: binding. As to the method:
Human μ-Opioid Receptor Radioligand Assay
To investigate binding properties of test compounds to human μ-opioid receptor, transfected CHO-K1 cell membranes and [^3H]-DAMGO (Perkin Elmer, ES-542-C), as the radioligand, were used. The assay was carried out with 20 μg of membrane suspension, 1 nM of [^3H]-DAMGO in either absence or presence of either buffer or 10 μM Naloxone for total and non-specific binding, respectively. Binding buffer contained Tris-HCl 50 mM, MgCl2 5 mM at pH 7.4. Plates were incubated at 27° C. for 60 minutes. After the incubation period, the reaction mix was then transferred to MultiScreen HTS, FC plates (Millipore), filtered and plates were washed 3 times with ice-cold 10 mM Tris-HCL (pH 7.4). Filters were dried and counted at approximately 40% efficiency in a MicroBeta scintillation counter (Perkin-Elmer) using EcoScint liquid scintillation cocktail, preferably, transfected CHO-K1 cell membranes (20 μg) were incubated with 1 nM of [^3H]-DAMGO in assay buffer containing Tris-HCl 50 mM, MgCl2 5 mM at pH 7.4. NBS (non-specific binding) was measured by adding 10 μM Naloxone. The binding of the test compound was measured at five different concentrations. Plates were incubated at 27° C. for 60 minutes. After the incubation period, the reaction mix was then transferred to MultiScreen HTS, FC plates (Millipore), filtered and plates were washed 3 times with ice-cold 10 mM Tris-HCL (pH 7.4). Filters were dried and counted at approximately 40% efficiency in a MicroBeta scintillation counter (Perkin-Elmer) using EcoScint liquid scintillation cocktail.

Test [2] deals with Human α2δ-1 subunit of Cav2.2 calcium channel (Homo sapiens, UniProt P54289). Briefly: Human α2δ-1 subunit of Cav2.2 calcium channel assay ([3H]-Gabapentin). It counts as binding. As to the method:
Human α2δ-1 Subunit of Cav2.2 Calcium Channel Assay
Human α2δ-1 enriched membranes (2.5 μg) were incubated with 15 nM of radiolabeled [3H]-Gabapentin in assay buffer containing Hepes-KOH 10 mM, pH 7.4. NSB (non specific binding) was measured by adding 10 μM pregabalin. After 60 min incubation at 27° C., binding reaction was terminated by filtering through Multiscreen GF/C (Millipore) presoaked in 0.5% polyethyleneimine in Vacuum Manifold Station, followed by 3 washes with ice-cold filtration buffer containing 50 mM Tris-HCl, pH 7.4. Filter plates were dried at 60° C. for 1 hour and 30 μl of scintillation cocktail were added to each well before radioactivity reading. Readings were performed in a Trilux 1450 Microbeta radioactive counter (Perkin Elmer), i.e. Human α2δ-1 enriched membranes (2.5 μg) were incubated with 15 nM of radiolabeled [3H]-Gabapentin in assay buffer containing Hepes-KOH 10 mM, pH 7.4. NSB (non specific binding) was measured by adding 10 μM pregabalin. The binding of the test compound was measured at five different concentrations. After 60 min incubation at 27° C., binding reaction was terminated by filtering through Multiscreen GF/C (Millipore) presoaked in 0.5% polyethyleneimine in Vacuum Manifold Station, followed by 3 washes with ice-cold filtration buffer containing 50 mM Tris-HCl, pH 7.4. Filter plates were dried at 60° C. for 1 hour and 30 μl of scintillation cocktail were added to each well before radioactivity reading. Readings were performed in a Trilux 1450 Microbeta radioactive counter (Perkin Elmer).

Setting [3] is: transfected CHO-K1 cell membranes, 1 nM [3H]-DAMGO, read-out: Binding μ (Ki).
Setting [4] is: human α2δ-1 enriched membranes, 15 nM [3H]-Gabapentin, read-out: Binding α2δ-1 (Ki).

Human α2δ-1 subunit of Cav2.2 calcium channel, sequence (P54289 25-1103): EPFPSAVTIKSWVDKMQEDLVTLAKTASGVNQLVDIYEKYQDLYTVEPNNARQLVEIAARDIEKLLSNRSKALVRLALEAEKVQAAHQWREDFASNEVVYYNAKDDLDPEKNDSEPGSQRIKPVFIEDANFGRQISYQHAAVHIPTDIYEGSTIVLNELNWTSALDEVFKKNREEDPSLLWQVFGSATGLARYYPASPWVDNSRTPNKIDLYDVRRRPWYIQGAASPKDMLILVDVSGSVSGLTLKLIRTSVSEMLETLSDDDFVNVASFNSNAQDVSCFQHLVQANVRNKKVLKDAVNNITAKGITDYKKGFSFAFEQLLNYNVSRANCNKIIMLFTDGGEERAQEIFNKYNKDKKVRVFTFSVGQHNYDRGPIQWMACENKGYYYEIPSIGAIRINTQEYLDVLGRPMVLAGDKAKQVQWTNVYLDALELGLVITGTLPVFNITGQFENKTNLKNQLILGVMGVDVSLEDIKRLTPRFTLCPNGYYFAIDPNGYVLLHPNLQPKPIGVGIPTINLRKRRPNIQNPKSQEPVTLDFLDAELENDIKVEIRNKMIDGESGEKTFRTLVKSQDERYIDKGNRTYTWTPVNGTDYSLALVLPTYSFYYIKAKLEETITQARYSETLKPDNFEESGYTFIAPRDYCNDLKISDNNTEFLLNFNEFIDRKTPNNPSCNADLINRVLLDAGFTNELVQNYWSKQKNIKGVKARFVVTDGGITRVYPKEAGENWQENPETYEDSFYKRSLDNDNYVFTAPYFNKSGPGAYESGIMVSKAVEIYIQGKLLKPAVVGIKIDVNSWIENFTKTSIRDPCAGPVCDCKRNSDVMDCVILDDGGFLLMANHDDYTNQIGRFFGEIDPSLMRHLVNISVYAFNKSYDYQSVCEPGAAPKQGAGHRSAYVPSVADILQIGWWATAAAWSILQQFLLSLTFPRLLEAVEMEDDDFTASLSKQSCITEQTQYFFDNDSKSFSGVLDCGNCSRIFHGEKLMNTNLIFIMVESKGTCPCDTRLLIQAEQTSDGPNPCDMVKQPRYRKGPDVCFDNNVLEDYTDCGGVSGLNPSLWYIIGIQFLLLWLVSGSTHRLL
T1 sequence (P35372 whole entry): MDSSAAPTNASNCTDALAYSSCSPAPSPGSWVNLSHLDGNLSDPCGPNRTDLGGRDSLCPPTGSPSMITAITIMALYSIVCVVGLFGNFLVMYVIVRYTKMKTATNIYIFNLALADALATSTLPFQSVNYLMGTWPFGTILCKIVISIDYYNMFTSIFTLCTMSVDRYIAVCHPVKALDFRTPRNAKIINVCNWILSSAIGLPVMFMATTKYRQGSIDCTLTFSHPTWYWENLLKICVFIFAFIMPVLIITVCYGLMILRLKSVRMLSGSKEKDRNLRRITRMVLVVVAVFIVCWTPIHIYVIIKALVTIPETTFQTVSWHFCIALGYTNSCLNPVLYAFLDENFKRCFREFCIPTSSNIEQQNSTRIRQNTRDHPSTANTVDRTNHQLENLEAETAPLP

Broadly, the Ki is a dissociation constant, usually derived from enzyme kinetics or from competition with a known ligand. For `Cc1nnc(N(C)C)c2nn(-c3ccccc3OC(CCN(C)Cc3ccccc3)Cc3ccccc3)c(C)c12` (centres unmarked) [Example 75, 2-(2-((4-(benzyl(methyl)amino)-1-phenylbutan-2-yl)oxy)phenyl)-N,N,3,4-tetramethyl-2H-pyrazolo[3,4-d]pyridazin-7-amine], the figures for the Ki in test [1] (setting [3]) and in test [2] (setting [4]) were > 500 nM and > 5000 nM, respectively.
As to `CNCCC(Oc1ccccc1-n1c(C)c2c(C)nnc(C)c2c1C)c1ccccc1` (centres unmarked) [Example 65, N-Methyl-3-phenyl-3-(2-(1,4,5,7-tetramethyl-6H-pyrrolo[3,4-d]pyridazin-6-yl)phenoxy)propan-1-amine], the Ki is 100 to 500 nM in test [1] and 500 to 5000 nM in test [2].
For the compound `CNCCC(Oc1ccc(C#N)cc1-n1nc2c(N(C)C)nnc(C)c2c1C)c1ccccc1` (centres unmarked) [Example 86, 3-(7-(dimethylamino)-3,4-dimethyl-2H-pyrazolo[3,4-d]pyridazin-2-yl)-4-(3-(methylamino)-1-phenylpropoxy)benzonitrile], the values for the Ki in test [1] (setting [3]) and in test [2] (setting [4]) were > 500 nM and > 5000 nM, respectively.
For `COCCNCCC(Oc1ccccc1-n1nc2c(N(C)C)nnc(C)c2c1C)c1ccccc1` (centres unmarked) [Example 26, 2-(2-(3-((2-methoxyethyl)amino)-1-phenylpropoxy)phenyl)-N,N,3,4-tetramethyl-2H-pyrazolo[3,4-d]pyridazin-7-amine], the Ki is > 500 nM in test [1] (setting [3]) and 500 to 5000 nM in test [2] (setting [4]).
Turning to `Cc1nnc(N(C)C)c2nn(-c3ccccc3OCCCNCCc3ccccc3)c(C)c12` [Example 31, N,N,3,4-tetramethyl-2-(2-(3-(phenethylamino)propoxy)phenyl)-2H-pyrazolo[3,4-d]pyridazin-7-amine], the figures for the Ki in test [1] (setting [3]) and in test [2] (setting [4]) were > 500 nM and 500 to 5000 nM, respectively.
Regarding `CNCCCC(Oc1ccccc1-n1nc2c(N(C)C)nnc(C)c2c1C)c1ccccc1` (centres unmarked) [Example 46, N,N,3,4-tetramethyl-2-(2-(4-(methylamino)-1-phenylbutoxy)phenyl)-2H-pyrazolo[3,4-d]pyridazin-7-amine], the Ki in test [1] (setting [3]) is > 500 nM; in test [2] (setting [4]), 500 to 5000 nM.
With `CNCCC(Oc1ccccc1-n1nc2c(N(C)C)nnc(C)c2c1C)c1cc(F)cc(F)c1` (centres unmarked) [Example 48, 2-(2-(1-(3,5-difluorophenyl)-3-(methylamino)propoxy)phenyl)-N,N,3,4-tetramethyl-2H-pyrazolo[3,4-d]pyridazin-7-amine], the Ki in test [1] (setting [3]) is > 500 nM; in test [2] (setting [4]) it was 500 to 5000 nM.
Regarding `CNCCC(Oc1ccccc1-n1nc2c(N(C)C)nnc(C)c2c1C)c1ccc(C(N)=O)cc1` (centres unmarked) [Example 92, 4-(1-(2-(7-(dimethylamino)-3,4-dimethyl-2H-pyrazolo[3,4-d]pyridazin-2-yl)phenoxy)-3-(methylamino)propyl)benzamide], the Ki in test [1] (setting [3]) was > 500 nM; in test [2] (setting [4]) it was 500 to 5000 nM.
`CCOc1ccc(-n2nc3c(N(C)C)nnc(C)c3c2C)c(OC(CCNC)c2ccccc2)c1` (centres unmarked) [Example 87, 2-(4-Ethoxy-2-(3-(methylamino)-1-phenylpropoxy)phenyl)-N,N,3,4-tetramethyl-2H-pyrazolo[3,4-d]pyridazin-7-amine]: the Ki in test [1] was > 500 nM; in test [2] it was < 500 nM.
On to `Cc1nnc(N(C)C)c2nn(-c3ccccc3OCC3CCNCC3)c(C)c12` [Example 3, N,N,3,4-tetramethyl-2-(2-(piperidin-4-ylmethoxy)phenyl)-2H-pyrazolo[3,4-d]pyridazin-7-amine], for which the Ki in test [1] (setting [3]) was > 500 nM; in test [2] (setting [4]), > 5000 nM.
Consider `Cc1nnc(N(C)C)c2nn(-c3ccccc3OCC3CCCNC3)c(C)c12` (centres unmarked) [Example 5, N,N,3,4-tetramethyl-2-(2-(piperidin-3-ylmethoxy)phenyl)-2H-pyrazolo[3,4-d]pyridazin-7-amine], for which the Ki in test [1] (setting [3]) was > 500 nM; in test [2] (setting [4]), 500 to 5000 nM.
In the same order, the values of `Cc1nnc(N(C)C)c2nn(-c3ccccc3OC(c3ccccc3)C3CCNCC3)c(C)c12` (centres unmarked) [Example 11, N,N,3,4-tetramethyl-2-(2-(phenyl(piperidin-4-yl)methoxy)phenyl)-2H-pyrazolo[3,4-d]pyridazin-7-amine] are > 500 nM and 500 to 5000 nM.
On to `CNCCC(Oc1ccccc1-n1nc2c(CC#N)nnc(C)c2c1C)c1ccccc1` (centres unmarked) [Example 63, 2-(3,4-Dimethyl-2-(2-(3-(methylamino)-1-phenylpropoxy)phenyl)-2H-pyrazolo[3,4-d]pyridazin-7-yl)acetonitrile], for which the Ki in test [1] (setting [3]) was > 500 nM; in test [2] (setting [4]), > 5000 nM.
Take `CNCCC(Oc1ccccc1-n1nc2c(N(C)C)nnc(C)c2c1C)c1ccncc1` (centres unmarked) [Example 19, N,N,3,4-tetramethyl-2-(2-(3-(methylamino)-1-(pyridin-4-yl)propoxy)phenyl)-2H-pyrazolo[3,4-d]pyridazin-7-amine]: the inhibitory constant (Ki) in test [1] (setting [3]) was > 500 nM; in test [2] (setting [4]), 500 to 5000 nM.
For `CNCCC(Oc1ccccc1-n1nc2c(N(C)C)nnc(C)c2c1C)C1CCOCC1` (centres unmarked) [Example 16, N,N,3,4-tetramethyl-2-(2-(3-(methylamino)-1-(tetrahydro-2H-pyran-4-yl)propoxy)phenyl)-2H-pyrazolo[3,4-d]pyridazin-7-amine], the Ki in test [1] (setting [3]) was > 500 nM; in test [2] (setting [4]) it was > 5000 nM.
`Cc1nnc(N(C)C)c2nn(-c3ccccc3OC3CCN(C)C3)c(C)c12` (centres unmarked) [Example 53, N,N,3,4-tetramethyl-2-(2-((1-methylpyrrolidin-3-yl)oxy)phenyl)-2H-pyrazolo[3,4-d]pyridazin-7-amine]: the Ki in test [1] (setting [3]) was > 500 nM; in test [2] (setting [4]) it was > 5000 nM.
`CNCCC(Oc1ccccc1-n1nc2c(N(C)C)nnc(C)c2c1C)c1ccccc1` (centres unmarked) [Example 6, N,N,3,4-tetramethyl-2-(2-(3-(methylamino)-1-phenylpropoxy)phenyl)-2H-pyrazolo[3,4-d]pyridazin-7-amine]: the values for the Ki in test [1] and in test [2] were 100 to 500 nM and 500 to 5000 nM, respectively.
For `CCNCCC(Oc1ccccc1-n1nc2c(N(C)C)nnc(C)c2c1C)c1cccc(F)c1` (centres unmarked) [Example 47, 2-(2-(3-(ethylamino)-1-(3-fluorophenyl)propoxy)phenyl)-N,N,3,4-tetramethyl-2H-pyrazolo[3,4-d]pyridazin-7-amine], the Ki is 100 to 500 nM in test [1] and < 500 nM in test [2].
In the case of `CNCCC(Oc1cc(C(N)=O)ccc1-n1nc2c(N(C)C)nnc(C)c2c1C)c1ccccc1` (centres unmarked) [Example 94, 4-(7-(dimethylamino)-3,4-dimethyl-2H-pyrazolo[3,4-d]pyridazin-2-yl)-3-(3-(methylamino)-1-phenylpropoxy)benzamide], the Ki was > 500 nM in test [1] (setting [3]) and > 5000 nM in test [2] (setting [4]).
Turning to `CNCCC(Oc1ccccc1-n1cc2cnnc(N(C)C)c2n1)c1ccccc1` (centres unmarked) [Example 71, N,N-dimethyl-2-(2-(3-(methylamino)-1-phenylpropoxy)phenyl)-2H-pyrazolo[3,4-d]pyridazin-7-amine], the Ki in test [1] (setting [3]) is > 500 nM; in test [2] (setting [4]) it was 500 to 5000 nM.
In the same order, the values of `COCC(CCN(C)Cc1ccccc1)Oc1ccccc1-n1nc2c(N(C)C)nnc(C)c2c1C` (centres unmarked) [Example 43, 2-(2-((4-(benzyl(methyl)amino)-1-methoxybutan-2-yl)oxy)phenyl)-N,N,3,4-tetramethyl-2H-pyrazolo[3,4-d]pyridazin-7-amine] are > 500 nM and 500 to 5000 nM.
For `CNCCC(Oc1ccc(NC(C)=O)cc1-n1nc2c(N(C)C)nnc(C)c2c1C)c1ccccc1` (centres unmarked) [Example 83, N-(3-(7-(dimethylamino)-3,4-dimethyl-2H-pyrazolo[3,4-d]pyridazin-2-yl)-4-(3-(methylamino)-1-phenylpropoxy)phenyl)acetamide] the same measures were > 500 nM and 500 to 5000 nM.
